We go through one molecule from patent publication US8063029B2, “Pharmaceutical composition” (FCB I LLC, priority 2002, dated 2011).

SMILES strings stand for the structures.

Data set [1] is described as follows: Solubility / miscibility in carrier fluids. It counts as physicochemical. From the text:
In such situations, when the first fluid evaporates, the compound of interest is left in a supersaturated environment in which it is favorable for the compound to pass into a less saturated environment, in this case through the membrane. […] Accordingly, if increased flux for oxacyclohexadecan-2-one is desired, a carrier may include ethanol and propylene glycol and/or water. […] Accordingly, if increased flux for testosterone is desired, a carrier may include ethanol and water or ethanol and propylene glycol. In addition, water may be used to prevent “reverse-flux”, or the flow of water from the membrane into the matrix of the composition.

The conditions of data set [2]: in vivo; cited from earlier work.

`C[C@]12CC[C@H]3[C@@H](CCC4=CC(=O)CC[C@@]43C)[C@@H]1CC[C@@H]2O` [testosterone, 17β-hydroxyandrost-4-en-3-one]: the figures for the solubility / miscibility result in data set [1] (in ethanol), in data set [1] (in propylene glycol) and in data set [1] (in water) were “soluble”, “partially soluble” and “not soluble”, respectively. Further, in data set [2], the “typical half-life in the blood serum” value was 10 to 100 min.
